Data published in US9040516B2, “Uracil derivative and use thereof for medical purposes” (SUMITOMO DAINIPPON PHARMA CO., LTD., priority 2011, dated 2015).
pIC50: −log10 of the molar value.

Columns and labels:
[1] = target: T1, human neutrophil elastase (Homo sapiens, UniProt P08246); test: Inhibitory action 2 against human neutrophil elastase (Test Example 2; fluorogenic substrate MeOSuc-AAPV-AMC, buffer with 400 mM NaCl, 0.2 mg/ml BSA); assay type: biochemical; settings: 37° C., read-out: IC50 value (compound concentration required for 50% inhibition of human neutrophil elastase)
T1 construct: purchased Elastin Products Company
T1 sequence (P08246 30-267): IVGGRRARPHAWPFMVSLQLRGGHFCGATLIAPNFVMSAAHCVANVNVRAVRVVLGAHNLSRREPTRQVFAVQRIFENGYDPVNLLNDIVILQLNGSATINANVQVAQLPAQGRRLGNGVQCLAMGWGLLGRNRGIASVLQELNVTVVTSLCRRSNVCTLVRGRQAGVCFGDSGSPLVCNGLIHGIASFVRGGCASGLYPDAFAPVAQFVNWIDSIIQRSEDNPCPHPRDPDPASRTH
Procedure, shortened: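 HNE (0.4 unit/ml in buffer) preincubated 5 min at 37° C with compound in 200 mM HEPES pH 7.5, 400 mM NaCl, 0.2 mg/ml BSA; reaction started with MeOSuc-AAPV-AMC (0.5 mM stock) and run 5 min at 37° C. AMC fluorescence (ex 380, em 460 nm) gave percent inhibition.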

| Compound | pIC50 [1] | melting point [°C] |
| --- | --- | --- |
| Cc1c(-c2c(C(=O)N3CCCC3)cnn2-c2ccc(C#N)cc2)c(=O)n(C)c(=O)n1-c1cccc(C(F)(F)F)c1 [Example 162] | 7.90 | 227 |
| Cc1c(-c2ccnn2-c2ccc(C#N)cc2)c(=O)n(C(C)C(N)=O)c(=O)n1-c1cccc(C(F)(F)F)c1 (stereo not shown) [Example 377] | 7.96 | 226 |
